Experiment: Human HepG2 cell viability assay in 384 well format
Format: toxicity, cell-based
Set-up: dose 125 nL, time 70.5 hour; concentration not given beside the values
Conditions: HepG2 cells, read-out: Inhibition

| SMILES | cytotoxicity at 70.5 h [%] |
| --- | --- |
| COC[C@]1(O)CCN(C2CCN(c3ccc(F)c(F)c3)CC2)CC1(C)C | 22.6 |
| Cc1ccc(CN2C(=O)OCC2CO)c2ccccc12 (stereo unspecified) | -6.41 |
| CN(Cc1nc2ccccc2c(=O)[nH]1)C[C@@H]1CCCN2CCCC[C@H]12 | -2.89 |
| O=C(NCc1noc(C2CCCO2)n1)c1cn2ccsc2n1 (stereo unspecified) | -9.32 |
| CCC[C@H]1CN(C(=O)Cn2ccccc2=O)C[C@@H]1NS(C)(=O)=O | -1.15 |
| CCN(Cc1ccncc1)Cc1c[nH]nc1-c1ccc(F)cc1 | -6.51 |
| CN(C)C(=O)CN1CCCN(CC2CCOc3ccccc3C2)CC1 (stereo unspecified) | -11.2 |
| CN1CCN(C)C2(CCN(Cc3ccc(C4CCCCO4)o3)CC2)C1 (stereo unspecified) | -1.75 |
| CCC(C(=O)NCc1csc(N2CCOCC2)n1)n1cccn1 (stereo unspecified) | -4.73 |
| CCCc1nnc(C(=O)N(C)Cc2cnc3ccccn23)o1 | 33.7 |
| CC(O)CCn1ccc2[nH]c(=O)c(C#N)cc2c1=O (stereo unspecified) | 4.38 |
| C[C@@H]1CN(CCOc2ccc(Cl)cc2)CC[C@@]1(O)C1CCOCC1 | 7.29 |
| CCCC1(CO)CCCN(C(=O)CNC(N)=O)C1 (stereo unspecified) | -28.7 |
| Cn1c(-c2ccccc2Cl)nc2cc(C(=O)NCCOCCO)cnc21 | -6.61 |
| COc1ccc(Cl)cc1C(C(=O)O)N1CCSCC1 (stereo unspecified) | -3.65 |
| CC(=O)N[C@@H]1CN(C(=O)c2ccc[nH]2)C[C@H]1c1ccc(C)o1 | 0.0626 |
| Cc1nc(C(C)N(C)Cc2nc(CCC(C)C)no2)c(C)s1 (stereo unspecified) | 0.293 |
| Cc1ccccc1N1CCN(c2ccncn2)C(C)C1 (stereo unspecified) | -2.86 |
| COCC(NC(=O)c1cc(NC(C)=O)ccc1Cl)c1ccnn1C (stereo unspecified) | -1.93 |

| SMILES | cytotoxicity at 70.5 h [%] |
| --- | --- |
| OCc1ccc(CN2CCC(n3cc(-c4ccc(F)cc4)nn3)CC2)o1 | -8.09 |
| COc1ccc(CN2CCN(CC3CC3)[C@@H]3CS(=O)(=O)C[C@@H]32)cc1O | -2.14 |
| CN(Cc1ccco1)C(=O)[C@@]12CNC[C@@H]1CN(C1CCCC1)C2 | -23 |
| CN(C)C(=O)N1CCCC(C(=O)N(C)Cc2cnc(N)nc2)C1 (stereo unspecified) | -10.7 |
| CNC(=O)[C@@H]1C[C@H](n2cc(-c3ccc(Cl)cc3)nn2)CN1 | -3.41 |
| N#Cc1cccc(N2CCCC(CO)(Cc3ccccc3F)C2)n1 (stereo unspecified) | 20.1 |
| CCNC(=O)[C@@H]1C[C@H](N)CN1c1cc(C(F)(F)F)nc(N(C)C)n1 | 37.1 |
| Cc1ccc(-c2nn(-c3cccc(F)c3)cc2CN(C)CCO)o1 | -4.83 |
| Cc1cccc2c1nc(CCO)n2-c1ccc(NS(C)(=O)=O)nc1 | -8.44 |
| CCNC(=O)[C@@H]1C[C@@H](n2cc(CN(CC)CC)nn2)CN1 | -13.5 |
| CN(C)CCN(C)C[C@@H]1CN(C(=O)NC2CCCC2)C[C@@H]1CO | -8.45 |
| O=C(Nc1ccc(-c2nc3c([nH]2)CCNC3)cc1)N1CCCC1 | -15.7 |
| CN1CC2(CCCN(Cc3cccc(CCN)c3)C2)OC1=O (stereo unspecified) | 2.55 |
| COC(=O)NCC(=O)N1CCC(Oc2cccc(C)c2)CC1 | -5.33 |
| O=C(O)C1(n2ccc(-c3ccco3)n2)CCN(Cc2cccnc2)CC1 | -4.45 |
| Cc1nc(C(C)C)cc(N2CCC3(CCC(=O)N(CC4CC4)C3)CC2)n1 | -11 |
| CN(C)c1ccccc1C(=O)N1CCOC2(CNCCOC2)C1 (stereo unspecified) | -2.92 |
| C[C@@H]1CN(CCCOc2ccc(F)cc2)CC[C@@]1(O)C1CCOCC1 | 2.59 |
| O=C(CCCN1CCCCC1)NC(C(=O)O)c1ccc(Cl)cc1 (stereo unspecified) | -5.87 |

| SMILES | cytotoxicity at 70.5 h [%] |
| --- | --- |
| Cc1nc(N(C)C/C=C/c2ccccc2)c2cnn(C)c2n1 | -5.71 |
| COCC[C@]1(O)CCN(Cc2nc(C)cs2)C[C@H]1C | 15.3 |
| NC(=O)c1cccc(CC2CCN(C(=O)Cn3cnnn3)C2)c1 (stereo unspecified) | -10.5 |
| Cc1cccc(C(C(=O)N(C)CCc2cn[nH]c2)N(C)C)c1 (stereo unspecified) | -8.71 |
| CN(CCc1ccccn1)C(=O)c1ccccc1F | -4.18 |
| Cc1ccc(F)c(OC2(C(=O)O)CCN(C(=O)c3ccco3)CC2)c1 | -7.46 |
| O=C(CCCN1CCCCC1)N1CCN(C(=O)c2ccc[nH]2)CC1 | 3.29 |
| Cc1cccnc1CC(C)NC1CCSCC1 (stereo unspecified) | -3.02 |
| CCN1CCN(Cc2nc(Cc3ccccc3)n[nH]2)CC1 | -5.11 |
| CCNc1ncc(C(=O)N2CCOC(CCCc3ccccc3)C2)cn1 (stereo unspecified) | 14.5 |
| CC(C1CCN(C(=O)c2coc(CN3CCOCC3)c2)CC1)N(C)C (stereo unspecified) | -1.57 |
| CC(C)c1cc(NC2CCCN(C(=O)c3cccs3)C2)ncn1 (stereo unspecified) | 2.55 |
| COCCN1C(=O)[C@H]2CC[C@@H]1CN(c1nccc(C3CCCC3)n1)C2 | -4.32 |
| O=S(=O)(NCc1ccccc1)N1CCN(c2ncccn2)CC1 | -18.4 |
| Cn1cnnc1CC1CCN(Cc2nn(C)c3cccc(Cl)c23)CC1 | 39.8 |
| COC[C@]1(O)CCN(C(=O)c2ccc(CN(C)C)o2)CC1(C)C | -12.5 |
| CC(Oc1ccc(F)cc1F)C(=O)N1CCC2(CC1)CC(=O)N(C)C2 (stereo unspecified) | 27.3 |
| O=C(NCc1cn2cccnc2n1)C1CC(=O)N(Cc2cccnc2)C1 (stereo unspecified) | 2.43 |
